Assay results reported in patent publication US8748415B2 (priority 2011, dated 2014).

What follows are compounds tested on recombinant NL4-3 virus (Renilla luciferase in nef, Gag P373S) (assay: HIV cell culture assay (luciferase activity in MT-2 cells infected with NLRluc recombinant virus)). Conditions: NL43, MT-2 cells infected 4-5 days with NLRluc recombinant virus, class symbol.
Format: cell-based
Procedure, shortened: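 Activity was read as luciferase output (Dual Luciferase reagents premixed with lysis solution) after 4–5 days of infection in serially diluted inhibitor. Host cells were MT-2 in 10% FBS RPMI. The reporter virus came from transfected 293T cells and was titered on MT-2.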
Compound `C=C(C)[C@@H]1CC[C@]2(CNCCC(=O)O)CC[C@]3(C)[C@H](CC[C@@H]4[C@@]5(C)CC=C(c6ccc(C(=O)O)cc6)C(C)(C)[C@@H]5CC[C@]43C)[C@@H]12` [Example 64, 4-((1R,3aS,5aR,5bR,7aR,11aS,11bR,13aR,13bR)-3a-((2-carboxymethylamino)methyl)-5a,5b,8,8,11a-pentamethyl-1-(prop-1-en-2-yl)-2,3,3a,4,5,5a,5b,6,7,7a,8,11,11a,11b,12,13,13a,13b-octadecahydro-1H-cyclopenta[a]chrysen-9-yl)benzoic acid] has an EC50 of less than 0.1 µM. Work on `C=C(C)[C@@H]1CC[C@]2(CNCC3(CN4CCCC4)CC3)CC[C@]3(C)[C@H](CC[C@@H]4[C@@]5(C)CC=C(c6ccc(C(=O)O)cc6)C(C)(C)[C@@H]5CC[C@]43C)[C@@H]12` [Example 66, 4-((1R,3aS,5aR,5bR,7aR,11aS,11bR,13aR,13bR)-5a,5b,8,8,11a-pentamethyl-1-(prop-1-en-2-yl)-3a-(((1-(pyrrolidin-1-ylmethyl)cyclopropyl)methylamino)methyl)-2,3,3a,4,5,5a,5b,6,7,7a,8,11,11a,11b,12,13,13a,13b-octadecahydro-1H-cyclopenta[a]chrysen-9-yl)benzoic acid] yielded an EC50 of less than 0.1 µM. `C=C(C)[C@@H]1CC[C@]2(CNCCCN)CC[C@]3(C)[C@H](CC[C@@H]4[C@@]5(C)CC=C(c6ccc(C(=O)O)cc6)C(C)(C)[C@@H]5CC[C@]43C)[C@@H]12` [Example 67, 4-((1R,3aS,5aR,5bR,7aR,11aS,11bR,13aR,13bR)-3a-((3-aminopropylamino)methyl)-5a,5b,8,8,11a-pentamethyl-1-(prop-1-en-2-yl)-2,3,3a,4,5,5a,5b,6,7,7a,8,11,11a,11b,12,13,13a,13b-octadecahydro-1H-cyclopenta[a]chrysen-9-yl)benzoic acid] gave an EC50 of less than 0.1 µM. Work on `C=C(C)[C@@H]1CC[C@]2(CNCCCN3CCCC3)CC[C@]3(C)[C@H](CC[C@@H]4[C@@]5(C)CC=C(c6ccc(C(=O)O)cc6)C(C)(C)[C@@H]5CC[C@]43C)[C@@H]12` [Example 68, 4-((1R,3aS,5aR,5bR,7aR,11aS,11bR,13aR,13bR)-5a,5b,8,8,11a-pentamethyl-1-(prop-1-en-2-yl)-3a-((3-(pyrrolidin-1-yl)propylamino)methyl)-2,3,3a,4,5,5a,5b,6,7,7a,8,11,11a,11b,12,13,13a,13b-octadecahydro-1H-cyclopenta[a]chrysen-9-yl)benzoic acid] yielded an EC50 of less than 0.1 µM. In the case of `C=C(C)[C@@H]1CC[C@]2(CNCCCO)CC[C@]3(C)[C@H](CC[C@@H]4[C@@]5(C)CC=C(c6ccc(C(=O)O)cc6)C(C)(C)[C@@H]5CC[C@]43C)[C@@H]12` [Example 69, 4-((1R,3aS,5aR,5bR,7aR,11aS,11bR,13aR,13bR)-3a-((3-hydroxypropylamino)methyl)-5a,5b,8,8,11a-pentamethyl-1-(prop-1-en-2-yl)-2,3,3a,4,5,5a,5b,6,7,7a,8,11,11a,11b,12,13,13a,13b-octadecahydro-1H-cyclopenta[a]chrysen-9-yl)benzoic acid], the EC50 is reported as less than 0.1 µM. In the case of `C=C(C)[C@@H]1CC[C@]2(CNCCC(=O)N3CCCC3)CC[C@]3(C)[C@H](CC[C@@H]4[C@@]5(C)CC=C(c6ccc(C(=O)O)cc6)C(C)(C)[C@@H]5CC[C@]43C)[C@@H]12` [Example 70, 4-((1R,3aS,5aR,5bR,7aR,11aS,11bR,13aR,13bR)-5a,5b,8,8,11a-pentamethyl-3a-((3-oxo-3-(pyrrolidin-1-yl)propylamino)methyl)-1-(prop-1-en-2-yl)-2,3,3a,4,5,5a,5b,6,7,7a,8,11,11a,11b,12,13,13a,13b-octadecahydro-1H-cyclopenta[a]chrysen-9-yl)benzoic acid], the EC50 is reported as less than 0.1 µM. `C=C(C)[C@@H]1CC[C@]2(CNCCCN3C(=O)CCC3=O)CC[C@]3(C)[C@H](CC[C@@H]4[C@@]5(C)CC=C(c6ccc(C(=O)O)cc6)C(C)(C)[C@@H]5CC[C@]43C)[C@@H]12` [Example 71, 4-((1R,3aS,5aR,5bR,7aR,11aS,11bR,13aR,13bR)-3a-((3-(2,5-dioxopyrrolidin-1-yl)propylamino)methyl)-5a,5b,8,8,11a-pentamethyl-1-(prop-1-en-2-yl)-2,3,3a,4,5,5a,5b,6,7,7a,8,11,11a,11b,12,13,13a,13b-octadecahydro-1H-cyclopenta[a]chrysen-9-yl)benzoic acid] gave an EC50 of less than 0.1 µM. Compound `C=C(C)[C@@H]1CC[C@]2(CNCCCN3CCCCC3)CC[C@]3(C)[C@H](CC[C@@H]4[C@@]5(C)CC=C(c6ccc(C(=O)O)cc6)C(C)(C)[C@@H]5CC[C@]43C)[C@@H]12` [Example 72, 4-((1R,3aS,5aR,5bR,7aR,11aS,11bR,13aR,13bR)-5a,5b,8,8,11a-pentamethyl-3a-((3-(piperidin-1-yl)propylamino)methyl)-1-(prop-1-en-2-yl)-2,3,3a,4,5,5a,5b,6,7,7a,8,11,11a,11b,12,13,13a,13b-octadecahydro-1H-cyclopenta[a]chrysen-9-yl)benzoic acid] has an EC50 of less than 0.1 µM. In the case of `C=C(C)[C@@H]1CC[C@]2(CNC/C=C/CN3CCS(=O)(=O)CC3)CC[C@]3(C)[C@H](CC[C@@H]4[C@@]5(C)CC=C(c6ccc(C(=O)O)cc6)C(C)(C)[C@@H]5CC[C@]43C)[C@@H]12` [Example 73, 4-((1R,3aS,5aR,5bR,7aR,11aS,11bR,13aR,13bR)-3a-((((2E)-4-(1,1-dioxido-4-thiomorpholinyl)-2-buten-1-yl)amino)methyl)-1-isopropenyl-5a,5b,8,8,11a-pentamethyl-2,3,3a,4,5,5a,5b,6,7,7a,8,11,11a,11b,12,13,13a,13b-octadecahydro-1H-cyclopenta[a]chrysen-9-yl)benzoic acid], the EC50 is reported as less than 0.1 µM. Work on `C=C(C)[C@@H]1CC[C@]2(CNCCCN3CCCC3CO)CC[C@]3(C)[C@H](CC[C@@H]4[C@@]5(C)CC=C(c6ccc(C(=O)O)cc6)C(C)(C)[C@@H]5CC[C@]43C)[C@@H]12` (stereo partly drawn) [Example 74, 4-((1R,3aS,5aR,5bR,7aR,11aS,11bR,13aR,13bR)-3a-((3-(2-(hydroxymethyl)pyrrolidin-1-yl)propylamino)methyl)-5a,5b,8,8,11a-pentamethyl-1-(prop-1-en-2-yl)-2,3,3a,4,5,5a,5b,6,7,7a,8,11,11a,11b,12,13,13a,13b-octadecahydro-1H-cyclopenta[a]chrysen-9-yl)benzoic acid] yielded an EC50 of less than 0.1 µM. `C=C(C)[C@@H]1CC[C@]2(CNCCC(=O)N(C)C)CC[C@]3(C)[C@H](CC[C@@H]4[C@@]5(C)CC=C(c6ccc(C(=O)O)cc6)C(C)(C)[C@@H]5CC[C@]43C)[C@@H]12` [Example 75, 4-((1R,3aS,5aR,5bR,7aR,11aS,11bR,13aR,13bR)-3a-((3-(dimethylamino)-3-oxopropylamino)methyl)-5a,5b,8,8,11a-pentamethyl-1-(prop-1-en-2-yl)-2,3,3a,4,5,5a,5b,6,7,7a,8,11,11a,11b,12,13,13a,13b-octadecahydro-1H-cyclopenta[a]chrysen-9-yl)benzoic acid] was tested, and the EC50 was less than 0.1 µM. `C=C(C)[C@@H]1CC[C@]2(CNCCCCN3CCS(=O)(=O)CC3)CC[C@]3(C)[C@H](CC[C@@H]4[C@@]5(C)CC=C(c6ccc(C(=O)O)cc6)C(C)(C)[C@@H]5CC[C@]43C)[C@@H]12` [Example 76, 4-((1R,3aS,5aR,5bR,7aR,11aS,11bR,13aR,13bR)-3a-(((4-(1,1-dioxido-4-thiomorpholinyl)butyl)amino)methyl)-1-isopropenyl-5a,5b,8,8,11a-pentamethyl-2,3,3a,4,5,5a,5b,6,7,7a,8,11,11a,11b,12,13,13a,13b-octadecahydro-1H-cyclopenta[a]chrysen-9-yl)benzoic acid] gave an EC50 of less than 0.1 µM. `C=C(C)[C@@H]1CC[C@]2(CNCCN3CCNC3=O)CC[C@]3(C)[C@H](CC[C@@H]4[C@@]5(C)CC=C(c6ccc(C(=O)O)cc6)C(C)(C)[C@@H]5CC[C@]43C)[C@@H]12` [Example 77, 4-((1R,3aS,5aR,5bR,7aR,11aS,11bR,13aR,13bR)-5a,5b,8,8,11a-pentamethyl-3a-((2-(2-oxoimidazolidin-1-yl)ethylamino)methyl)-1-(prop-1-en-2-yl)-2,3,3a,4,5,5a,5b,6,7,7a,8,11,11a,11b,12,13,13a,13b-octadecahydro-1H-cyclopenta[a]chrysen-9-yl)benzoic acid] gave an EC50 of less than 0.1 µM. `C=C(C)[C@@H]1CC[C@]2(CNCCN3CCCCC3=O)CC[C@]3(C)[C@H](CC[C@@H]4[C@@]5(C)CC=C(c6ccc(C(=O)O)cc6)C(C)(C)[C@@H]5CC[C@]43C)[C@@H]12` [Example 78, 4-((1R,3aS,5aR,5bR,7aR,11aS,11bR,13aR,13bR)-5a,5b,8,8,11a-pentamethyl-3a-((2-(2-oxopiperidin-1-yl)ethylamino)methyl)-1-(prop-1-en-2-yl)-2,3,3a,4,5,5a,5b,6,7,7a,8,11,11a,11b,12,13,13a,13b-octadecahydro-1H-cyclopenta[a]chrysen-9-yl)benzoic acid] was tested, and the EC50 was less than 0.1 µM. `C=C(C)[C@@H]1CC[C@]2(CNCC(C)CN3CCCC3=O)CC[C@]3(C)[C@H](CC[C@@H]4[C@@]5(C)CC=C(c6ccc(C(=O)O)cc6)C(C)(C)[C@@H]5CC[C@]43C)[C@@H]12` (stereo partly drawn) [Example 79, 4-((1R,3aS,5aR,5bR,7aR,11aS,11bR,13aR,13bR)-5a,5b,8,8,11a-pentamethyl-3a-((2-methyl-3-(2-oxopyrrolidin-1-yl)propylamino)methyl)-1-(prop-1-en-2-yl)-2,3,3a,4,5,5a,5b,6,7,7a,8,11,11a,11b,12,13,13a,13b-octadecahydro-1H-cyclopenta[a]chrysen-9-yl)benzoic acid] was tested, and the EC50 was less than 0.1 µM.

Same assay, conditions: NL43, MT-2 cells infected 4-5 days with NLRluc recombinant virus, numeric value
`C=C(C)[C@@H]1CC[C@]2(CNCCCBr)CC[C@]3(C)[C@H](CC[C@@H]4[C@@]5(C)CC=C(c6ccc(C(=O)O)cc6)C(C)(C)[C@@H]5CC[C@]43C)[C@@H]12` [Example 65, 4-((1R,3aS,5aR,5bR,7aR,11aS,11bR,13aR,13bR)-3a-((3-bromopropylamino)methyl)-5a,5b,8,8,11a-pentamethyl-1-(prop-1-en-2-yl)-2,3,3a,4,5,5a,5b,6,7,7a,8,11,11a,11b,12,13,13a,13b-octadecahydro-1H-cyclopenta[a]chrysen-9-yl)benzoic acid] showed an EC50 of 0.001 µM.
